Data set [1] relates to pregnant rats. In words: Abortion test on female rats. The format is in vivo. Particulars: d5-d7 p.c., autopsy d9 p.c. The protocol: Abortion Test on Female Rats
The action of progesterone and of the progesterone receptor is a fundamental precondition for successful pregnancy or gestation in mammals. The progesterone-antagonistic action of the inventive compounds was tested on pregnant rats (6 rats per group) on days 5 to 7 post coitum under conventional housing and feeding conditions.
After successful mating, the pregnant animals (presence of sperm in the vaginal smear on day 1 of pregnancy=d1 p.c.) were randomized and divided into the treatment group and the control group. The animals then each received subcutaneously or orally 0.15; 0.5; 1.5 or 5 mg/kg of the test compound or 1.0 ml/kg of vehicle (benzyl benzoate/castor oil: 1+4 [v/v]) daily from day 5 to day 7 (d5−d7 p.c.).
Autopsy was conducted on day 9 (d9 p.c.). As a characteristic of progesterone receptor-antagonistic action, the uterus was examined for the presence of nidation sites. Complete absence, or else the presence of pathological, haemorrhagic or otherwise abnormal nidation sites, on day 9 (d9 p.c.) was considered as abortion.

Data set [2] addresses T1, human progesterone receptor A (Homo sapiens, UniProt P06401).
T1 construct: expressed in transfected cells; host or cells: SK-N-MC human neuroblastoma cells, stably transfected with pRChPR-A-neo and pMMTV-LUC
T1 sequence (P06401 1-769 isoform P06401-2): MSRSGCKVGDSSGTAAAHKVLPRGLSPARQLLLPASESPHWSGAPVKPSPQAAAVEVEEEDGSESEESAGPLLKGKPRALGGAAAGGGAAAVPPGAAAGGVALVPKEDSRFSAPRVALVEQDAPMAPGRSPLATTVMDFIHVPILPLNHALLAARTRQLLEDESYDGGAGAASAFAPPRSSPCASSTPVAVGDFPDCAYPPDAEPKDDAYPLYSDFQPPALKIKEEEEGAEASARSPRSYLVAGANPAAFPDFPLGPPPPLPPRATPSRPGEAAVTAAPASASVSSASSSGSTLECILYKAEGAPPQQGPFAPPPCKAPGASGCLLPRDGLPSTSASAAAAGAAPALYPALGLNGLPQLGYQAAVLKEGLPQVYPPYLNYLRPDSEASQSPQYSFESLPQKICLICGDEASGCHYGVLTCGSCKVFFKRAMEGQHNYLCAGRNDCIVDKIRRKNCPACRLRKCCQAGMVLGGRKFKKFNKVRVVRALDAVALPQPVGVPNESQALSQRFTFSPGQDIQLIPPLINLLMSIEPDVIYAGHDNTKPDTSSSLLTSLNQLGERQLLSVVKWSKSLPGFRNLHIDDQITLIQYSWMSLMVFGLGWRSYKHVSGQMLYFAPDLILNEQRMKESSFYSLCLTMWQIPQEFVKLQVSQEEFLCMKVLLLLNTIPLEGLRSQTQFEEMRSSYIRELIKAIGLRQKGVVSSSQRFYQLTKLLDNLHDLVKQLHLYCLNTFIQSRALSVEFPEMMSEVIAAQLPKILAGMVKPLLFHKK
Nature of the data set: Progesterone receptor-antagonistic action in stably transfected SK-N-MC cells, PR-A, MMTV-LUC reporter. The format is cell-based. Particulars: read-out: IC50 PR-A. An outline of the steps: (§1)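 SK-N-MC neuroblastoma cells stably expressing human PR-A or PR-B plus MMTV-LUC reporter, treated 24 h with compound (0.01 nmol/l upward). Antagonism measured against 0.1 nmol/l promegestone; luciferase in lysates as RLU, given as % efficacy and IC50 (agonism as EC50).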

A short description of data set [3]: Metabolic stability in human liver microsomes. The format is in vitro ADME. Particulars: for Predicted clearance Human: predicted in vivo clearance from liver microsomes, well-stirred model, 1 μM. The protocol:
(§2) Determination of Metabolic Stability in Human and Rat Liver Microsomes
Isolated Human Liver Microsomes (HLM) were Used to Assess the Metabolic Stability of compounds of general formula I.
(§3) The incubations were conducted with 2.4 ml of HLM solution (protein content 0.5 mg/ml), 30 μl of the test compound (final concentration 1 μM) and 0.6 ml of the cofactor mixture (═NADPH-generating system composed of 3 IU glucose-6-phosphate dehydrogenase, 14.6 mg glucose-6-phosphate, 1.2 mg NADP) at 37° C. in 100 mM phosphate buffer at pH 7.4. Samples were taken at 6 time points (2-60 min) and precipitated with an equal volume of methanol, and the recovery of the test substances used in the supernatant was determined by LC-MS/MS analysis. The half-life of substance degradation determined therefrom was used to calculate what is called the intrinsic clearance of the substance in the liver microsome preparation.

The nature of data set [4]: Solubility in aqueous medium at pH 7.4. The data set is classed as physicochemical. Particulars: for solubility: aqueous medium, pH 7.4, aqueous buffer.
Data set [5] concerns the target T2, human progesterone receptor B (Homo sapiens, UniProt P06401).
T2 construct: expressed in transfected cells; host or cells: SK-N-MC human neuroblastoma cells, stably transfected with pRChPR-B-neo and pMMTV-LUC
T2 sequence (P06401 1-933): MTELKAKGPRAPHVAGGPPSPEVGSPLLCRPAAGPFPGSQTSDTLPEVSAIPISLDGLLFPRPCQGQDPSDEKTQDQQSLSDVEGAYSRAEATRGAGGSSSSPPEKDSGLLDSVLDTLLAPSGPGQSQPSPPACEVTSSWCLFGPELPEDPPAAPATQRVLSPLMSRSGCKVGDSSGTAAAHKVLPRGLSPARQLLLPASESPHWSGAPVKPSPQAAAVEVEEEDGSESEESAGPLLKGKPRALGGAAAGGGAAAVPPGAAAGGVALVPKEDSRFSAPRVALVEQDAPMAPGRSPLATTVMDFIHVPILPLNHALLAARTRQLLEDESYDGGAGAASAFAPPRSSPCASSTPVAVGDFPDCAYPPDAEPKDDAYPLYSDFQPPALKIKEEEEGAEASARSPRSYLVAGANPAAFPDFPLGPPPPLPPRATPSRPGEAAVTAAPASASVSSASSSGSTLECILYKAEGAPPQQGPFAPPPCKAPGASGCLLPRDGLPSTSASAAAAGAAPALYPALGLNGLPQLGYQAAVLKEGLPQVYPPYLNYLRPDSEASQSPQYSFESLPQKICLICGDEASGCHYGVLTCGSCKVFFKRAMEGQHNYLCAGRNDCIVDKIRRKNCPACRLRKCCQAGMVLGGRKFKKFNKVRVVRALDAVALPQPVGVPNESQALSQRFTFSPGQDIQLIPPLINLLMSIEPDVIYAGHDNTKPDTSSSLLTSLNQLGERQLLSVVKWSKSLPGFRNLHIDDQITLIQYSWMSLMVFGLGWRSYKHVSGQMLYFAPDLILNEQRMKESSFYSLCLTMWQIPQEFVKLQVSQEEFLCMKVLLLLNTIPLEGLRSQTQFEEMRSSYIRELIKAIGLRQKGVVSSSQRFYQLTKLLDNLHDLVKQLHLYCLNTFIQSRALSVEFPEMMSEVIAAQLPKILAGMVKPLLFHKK
Nature of the data set: Progesterone receptor-antagonistic action in stably transfected SK-N-MC cells, PR-B, MMTV-LUC reporter. The format is cell-based. Particulars: read-out: IC50 PR-B. An outline of the steps:
as §1

Data set [6] is described as follows: Clearance and half-life after intravenous administration in rats. The format is in vivo. Particulars: i.v. bolus 0.3-0.5 mg/kg; for CLblood: female rats.
Description: Determination of Clearance and of Half-Life after Intravenous Administration in Rats
The determination of the in vivo clearance and half-life of test substances was conducted in female rats with a body weight of approx. 200-250 g. For this purpose, the test substances (in a cassette test up to 3 different substances per animal) were administered intravenously (i.v.) into the tail vein in dissolved form at a dose of 0.3-0.5 mg/kg as a bolus in a volume of 2 ml/kg, using compatible solubilizers such as PEG400 and/or ethanol in a compatible amount. A polyurethane catheter in the jugular vein was used to take approx. 0.2 ml blood samples at the time points of 2 min, 8 min, 15 min, 30 min, 45 min, 1 h, 2 h, 4 h, 6 h, 8 h, 24 h. The blood samples were stored without shaking in lithium heparin tubes (Monovettes® from Sarstedt) and centrifuged at 3000 rpm for 15 min. An aliquot of 100 μl was taken from the supernatant (plasma) and precipitated by adding 400 μl of cold methanol. The precipitated samples were frozen at −20° C. overnight, then centrifuged again at 3000 rpm for 15 min, before 150 μl of the clear supernatant were removed to determine the concentration. The analysis was effected by means of an Agilent 1200 HPLC system with connected LC-MS/MS detection.
Calculation of the PK Parameters (Via Nonlinear Regression by PK Calculation Software):
CLplasma: total plasma clearance of the test substance (in l*kg/h),
where CLplasma=dose/AUCinf;
AUCinf: extrapolated area under the plasma concentration-time curve (in μg*h/l);
CLblood: total blood clearance of the test substance (in l*kg/h), where (CLblood=CLplasma*Cp/Cb);
Cb/Cp: ratio of the blood to plasma concentration distribution of the test substance;
T½: terminal half-life of the test substance (in h).
Data set [7] is described as follows: Metabolic stability in rat liver microsomes. The format is in vitro ADME. Here is the method: as §2, §3
(Liver microsomes are vesicles of endoplasmic reticulum, rich in cytochrome P450 enzymes.)

Values after ≈ are worked out from the molar mass of the structure shown.

Broadly, the IC50 is the midpoint of a concentration-inhibition curve. Usually solubility stands for how much of the substance goes into solution per volume. Low values mean a poorly soluble substance, high ones a readily soluble substance. Regarding `C[C@]12C[C@H](c3ccc(C#CCO)cc3)C3=C4CCC(=O)C=C4CC[C@H]3[C@@H]1CC[C@@]2(O)C(F)(F)C(F)(F)F` [Example 1, (8S,11R,13S,14S,17S)-17-hydroxy-11-[4-(3-hydroxyprop-1-yn-1-yl)phenyl]-13-methyl-17-pentafluoroethyl-1,2,6,7,8,11,12,13,14,15,16,17-dodecahydrocyclopenta[a]phenanthren-3-one], the Abortion rate in data set [1] (daily dose 0.5 mg/kg p.o.), in data set [1] (daily dose 1.5 mg/kg p.o.) and in data set [1] (daily dose 5.0 mg/kg p.o.) was 100% each time. Moreover, the 50% inhibitory concentration (IC50) in data set [2] was found to be 0.097 nM; in data set [5] it was 0.11 nM. Also, in data set [3], the “Predicted clearance Human” value is 5.33 mL/min/kg. The compound also showed a solubility in data set [4] of 13 µg/mL (≈ 25 µM).
For the compound `C[C@]12C[C@H](c3ccc(C#C/C=C/C#N)cc3)C3=C4CCC(=O)C=C4CCC3C1CC[C@@]2(O)C(F)(F)C(F)(F)F` (stereo partly drawn) [Example 4, (E)-5-[4-((8S,11R,13S,14S,17S)-17-hydroxy-13-methyl-3-oxo-17-pentafluoroethyl-2,3,6,7,8,11,12,13,14,15,16,17-dodecahydro-1H-cyclopenta[a]phenanthren-1′-yl)phenyl]pent-2-en-4-ynenitrile], the IC50 in data set [2] came to 0.2 nM; in data set [5], 0.1 nM. Moreover, in data set [3], the “Predicted clearance Human” value is 1.5 mL/min/kg. This compound also displayed a solubility in data set [4] of 8 µg/mL (≈ 14.8 µM). In data set [6], the CLblood is 55 ± 21.7 mL/min/kg. Besides, in data set [6] (female, rat, plasma, iv, read-out: t1/2 (terminal half-life)), the half-life is at least 1 h.
On to `C[C@]12C[C@H](c3ccc(C#Cc4ccc(C(=O)O)cc4)cc3)C3=C4CCC(=O)C=C4CC[C@H]3[C@@H]1CC[C@@]2(O)C(F)(F)C(F)(F)F` [Example 16, 4-[4-((8S,11R,13S,14S,17S)-17-hydroxy-13-methyl-3-oxo-17-pentafluoroethyl-2,3,6,7,8,11,12,13,14,15,16,17-dodecahydro-1H-cyclopenta[a]phenanthren-11-yl)phenylethynyl]benzoic acid], for which the results for the Abortion rate in data set [1] (daily dose 0.5 mg/kg p.o.), in data set [1] (daily dose 1.5 mg/kg p.o.) and in data set [1] (daily dose 5.0 mg/kg p.o.) were 0%, 16.7% and 100%, respectively. Moreover, the IC50 was found to be 0.1 nM in data set [2] and 0.05 nM in data set [5]. In addition, the “Predicted clearance Human” value in data set [3] is 5.5 mL/min/kg. Moreover, in data set [4] (aqueous medium under physiological conditions), the “solubility (in words)” value is on record as “improved solubility”. For the same compound, the solubility in data set [4] was found to be 204 µg/mL (≈ 334 µM). This compound also registered a CLblood in data set [6] of 35 ± 8.3 mL/min/kg.
As to `C[C@]12C[C@H](c3ccc(CO)cc3)C3=C4CCC(=O)C=C4CC[C@H]3[C@@H]1CC[C@@]2(O)C(F)(F)C(F)(F)F` [Ref. 1*, (8S,11R,13S,14S,17S)-17-hydroxy-11-[4-(hydroxymethyl)phenyl]-13-methyl-17-pentafluoroethyl-1,2,6,7,8,11,12,13,14,15,16,17-dodecahydrocyclopenta[a]phenanthren-3-one, reference compound], the IC50 in data set [2] came out at 0.4 nM; in data set [5], 0.3 nM. Further, the “Predicted Fmax (maximum oral bioavailability) Human” value in data set [3] (calculated from liver microsome data) is 42%. In data set [3], the “Predicted clearance Human” value was 12 mL/min/kg. In data set [4], this compound came in with a solubility of 17 µg/mL (≈ 34.2 µM). Moreover, the “predicted maximum bioavailability in rats (in words)” value in data set [7] is on record as “good”.
